Reference: article PMC6630832, “3-Vinylazetidin-2-Ones: Synthesis, Antiproliferative and Tubulin Destabilizing Activity in MCF-7 and MDA-MB-231 Breast Cancer Cells” (Pharmaceuticals, 2019)
Several values for one entry are separate records, joined by “and”; a condition that tells them apart may be missing. Equal entries are not always repeated. Where two headings read alike, the source gives them in different places.

Experiments:
purified bovine tubulin = biological target: T1, purified bovine tubulin (Bos taurus, UniProt P81947+Q6B856); assay: Tubulin polymerization assay; type: biochemical; settings: for vmax of tubulin polymerization: absorbance at 340 nm, 37 °C
T1 construct: Purified (>99%) bovine brain tubulin (3 mg/mL); purchased Cytoskeleton Inc. BK006; host or cells: bovine brain (tissue-purified)
T1 sequence (Q6B856 whole entry): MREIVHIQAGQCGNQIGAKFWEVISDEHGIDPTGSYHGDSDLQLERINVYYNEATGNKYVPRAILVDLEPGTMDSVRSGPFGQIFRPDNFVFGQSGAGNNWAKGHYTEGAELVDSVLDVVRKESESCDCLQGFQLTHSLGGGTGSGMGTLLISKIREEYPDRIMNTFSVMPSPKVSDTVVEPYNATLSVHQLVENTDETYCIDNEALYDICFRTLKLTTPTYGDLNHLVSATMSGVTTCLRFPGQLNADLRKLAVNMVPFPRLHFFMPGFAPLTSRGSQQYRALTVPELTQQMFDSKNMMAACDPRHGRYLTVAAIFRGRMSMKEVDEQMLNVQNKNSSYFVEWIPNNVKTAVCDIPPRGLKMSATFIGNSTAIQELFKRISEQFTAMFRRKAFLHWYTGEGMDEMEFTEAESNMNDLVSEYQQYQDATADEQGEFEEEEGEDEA
T1 sequence (P81947 whole entry): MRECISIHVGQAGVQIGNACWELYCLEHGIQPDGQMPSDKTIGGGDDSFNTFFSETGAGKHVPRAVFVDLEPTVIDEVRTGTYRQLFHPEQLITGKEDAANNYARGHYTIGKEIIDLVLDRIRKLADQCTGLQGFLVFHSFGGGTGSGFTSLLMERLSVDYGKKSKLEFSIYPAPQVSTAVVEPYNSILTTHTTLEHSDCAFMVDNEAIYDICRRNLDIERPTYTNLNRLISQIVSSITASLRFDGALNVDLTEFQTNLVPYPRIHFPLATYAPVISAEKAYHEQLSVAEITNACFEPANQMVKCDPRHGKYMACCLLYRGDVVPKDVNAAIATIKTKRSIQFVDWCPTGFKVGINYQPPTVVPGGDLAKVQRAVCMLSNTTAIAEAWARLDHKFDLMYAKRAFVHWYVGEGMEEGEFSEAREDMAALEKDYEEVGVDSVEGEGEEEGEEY
Protocol: The assembly of purified bovine tubulin was monitored using a kit, BK006, purchased from Cytoskeleton Inc., 1830 S Acoma St, Denver, CO, 80223, USA.. The assay was carried out in accordance with the manufacturer’s instructions in the tubulin polymerisation assay kit manual using the standard assay conditions. The values reported represent the average values from two independent assays. Purified (>99%) bovine brain tubulin (3 mg/mL) in a buffer consisting of 80 mM PIPES (pH 6.9), 0.5 mM EGTA, 2 mM MgCl2, 1 mM GTP and 10% glycerol was incubated at 37 °C in the presence of either vehicle (2% (v/v) ddH2O) or compounds 7h, 7i, 7s, 7t (initially 10 µM in EtOH); CA-4 and Paclitaxel were used as controls. Light is scattered proportionally to the concentration of polymerised microtubules in the assay. Therefore, tubulin assembly was monitored turbidimetrically at 340 nm at 37 °C in a Spectramax 340 PC spectrophotometer (Molecular Devices, 3860 N 1st St, San Jose, CA, USA). The absorbance was measured at 30 s intervals for 60 min.

[1] = tested on: human MDA-MB-231 breast cancer cells; assay: Cell viability (Alamar Blue) antiproliferative assay in MDA-MB-231 cells; type: cell-based; settings: mean ± SEM
Protocol: The human breast carcinoma cell line MCF-7, was purchased from the European Collection of Animal Cell Cultures (ECACC) and was cultured in Eagle’s minimum essential medium with 10% fetal bovine serum, 2 mM L-glutamine and 100 μg/mL penicillin/streptomycin. The medium was supplemented with 1% non-essential amino acids. The human breast carcinoma cell line MDA-MB-231 was purchased from the European Collection of Animal Cell Cultures (ECACC). MDA-MB-231 cells were maintained in Dulbecco’s modified Eagle’s medium (DMEM) supplemeted with 10% (v/v) fetal bovine serum, 2 mM L-glutamine and 100 μg/mL penicillin/streptomycin (complete medium). All media contained 100 U/mL penicillin and 100 μg/mL streptomycin. Triple negative breast cancer Hs578T cells and its invasive variant Hs578Ts(i)8 were obtained as a kind gift from Dr. Susan McDonnell, School of Chemical and Bioprocess Engineering, University College Dublin and were cultured in Dulbecco’s Modified Eagle’s Media (DMEM) with GlutaMAX^TM-I, with the same supplement as for MDA-MB-231 cells in the absence of non-essential amino acids. HEK-293T normal epithelial embryonic kidney cells were cultured in Dulbecco’s Modified Eagle’s Medium (DMEM) with GlutaMAX^TM-I in the absence of non-essential amino acids. K562 and HL-60 cells were originally obtained from the European Collection of Cell Cultures (Salisbury, UK).The K562 cells were derived from a patient in the blast crisis stage of CML HL-60 cells were derive from a patient with acute myeloid leukaemia. Cells were cultured in RPMI-1640 Glutamax medium supplemented with 10% FCS media, and 100 μg/mL penicillin/streptomycin. Cells were maintained at 37 °C in 5% CO2 in a humidified incubator. All cells were sub-cultured three times/week (adherent cells by trypsinisation).
Cells were seeded at a density of 5 × 10^3 cells/well (MCF-7), in triplicate in 96-well plates. After 24 h, cells were then treated with either medium alone, vehicle [1% ethanol (v/v)] or with serial dilutions of CA-4 or β-lactam analogue. Cell viability for MCF-7 and MDA-MB-231 was analysed using the Alamar Blue assay (Invitrogen Corp, Thermo Fisher Scientific, 168 Third Avenue, Waltham, MA, USA) according to the manufacturer’s instructions. After 72 h, Alamar Blue [10% (v/v)] was added to each well and plates were incubated for 3–5 h at 37 °C in the dark. Fluorescence was read using a 96-well fluorimeter with excitation at 530 nm and emission at 590 nm. Results were expressed as percentage viability relative to vehicle control (100%). Dose response curves were plotted and IC50 values (concentration of drug resulting in 50% reduction in cell survival) were obtained using the commercial software package Prism (GraphPad Software, Inc., 2365 Northside, Suite 560, San Diego, CA, USA). Experiments were performed in triplicate on at least three separate occasions.

COLO 205 = assay: NCI60 screen (SRB), Colon Cancer; type: cell-based; settings: Homo sapiens
T-47D = assay: NCI60 screen (SRB), Breast cancer; type: cell-based; settings: Homo sapiens, T47D
HCT-2998 = assay: NCI60 screen (SRB), Colon Cancer; type: cell-based
MCF-7 = assay: NCI60 screen (SRB), Breast cancer; type: cell-based; settings: Homo sapiens, MCF7
HT29 = assay: NCI60 screen (SRB), Colon Cancer; type: cell-based; settings: Homo sapiens, HT-29
UACC-257 = assay: NCI60 screen (SRB), Melanoma; type: cell-based; settings: Homo sapiens
UO-31 = assay: NCI60 screen (SRB), Renal cancer; type: cell-based; settings: Homo sapiens
MDA-MB-435 = assay: NCI60 screen (SRB), Melanoma; type: cell-based; settings: Homo sapiens
SK-OV-3 = assay: NCI60 screen (SRB), Ovarian cancer; type: cell-based; settings: Homo sapiens
LOX IMVI = assay: NCI60 screen (SRB), Melanoma; type: cell-based; settings: Homo sapiens
SK-MEL-28 = assay: NCI60 screen (SRB), Melanoma; type: cell-based; settings: Homo sapiens
SF295 = assay: NCI60 screen (SRB), CNS Cancer; type: cell-based; settings: Homo sapiens, SF-295
SR = assay: NCI60 screen (SRB), Leukemia; type: cell-based; settings: Homo sapiens
CCRF-CEM = assay: NCI60 screen (SRB), Leukemia; type: cell-based; settings: Homo sapiens
[2] = 10 μM, with reference to ethanol control
[3] = NCI60 Colon Cancer cell line COLO 205, read-out: GI50
[4] = NCI60 Breast cancer cell line T-47D, read-out: GI50
[5] = NCI60 Colon Cancer cell line HCT-2998, read-out: GI50
[6] = NCI result in MCF-7 cells, read-out: GI50
[7] = NCI60 Colon Cancer cell line HT29, read-out: GI50
[8] = NCI60 Melanoma cell line UACC-257, read-out: GI50
[9] = NCI60 Renal cancer cell line UO-31, read-out: GI50
[10] = NCI60 Melanoma cell line MDA-MB-435, read-out: GI50
[11] = NCI60 Ovarian cancer cell line SK-OV-3, read-out: GI50
[12] = NCI60 Melanoma cell line LOX IMVI, read-out: GI50
[13] = NCI60 Melanoma cell line SK-MEL-28, read-out: GI50
[14] = NCI60 CNS Cancer cell line SF295, read-out: GI50
[15] = NCI60 Leukemia cell line SR, read-out: GI50
[16] = NCI60 Leukemia cell line CCRF-CEM, read-out: GI50

Structure (SMILES)	IC50 [1] [nM]	GI50 (COLO 205; COLO 205) [nM]	GI50 (HCT-2998) [nM]	GI50 (MCF-7) [nM]	vmax of tubulin polymerization (purified bovine tubulin; 10 μM) [mOD/min]	fold reduction in vmax of tubulin polymerization (purified bovine tubulin; [2])	GI50 (HT29) [nM]	GI50 (UACC-257; UACC-257) [nM]	GI50 (COLO 205; [3]) [nM]	GI50 (T-47D; [4]) [nM]	GI50 (HCT-2998; [5]) [nM]	GI50 (MCF-7; [6]) [nM]	GI50 (HT29; [7]) [nM]	GI50 (UACC-257; [8]) [nM]	GI50 (UO-31; [9]) [nM]	GI50 (MDA-MB-435; [10]) [nM]	GI50 (SK-OV-3; [11]) [nM]	GI50 (LOX IMVI; [12]) [nM]	GI50 (SK-MEL-28; [13]) [nM]	GI50 (SF295; [14]) [nM]	also measured
COc1ccc(/C=C\c2cc(OC)c(OC)c(OC)c2)cc1O [CA-4, Combretastatin A-4, reference compound]	43	–	–	–	–	–	–	–	–	–	–	–	–	–	–	–	–	–	–	–	fold reduction in vmax of tubulin polymerization (purified bovine tubulin): 5.28 fold
C=CC1C(=O)N(c2cc(OC)c(OC)c(OC)c2)C1c1ccc(OC)cc1 (centres unmarked) [Compound 7h, 4-(4-Methoxyphenyl)-1-(3,4,5-trimethoxyphenyl)-3-vinylazetidin-2-one]	–	20.6	35.3	30.6	3.43	2.45 fold	33.7	42200	–	–	–	–	–	–	–	–	–	–	–	–	GI50 (T-47D): 20500 nM; GI50 (UO-31; UO-31): 70.9 nM; GI50 (MDA-MB-435; MDA-MB-435): 22.6 nM; GI50 (SK-OV-3; SK-OV-3): 28.5 nM; GI50 (LOX IMVI; LOX IMVI): 41.6 nM; GI50 (SK-MEL-28; SK-MEL-28): 59.9 nM; GI50 (SF295): 35.8 nM
C=CC1C(=O)N(c2cc(OC)c(OC)c(OC)c2)C1c1ccc(OC)c(O)c1 (centres unmarked) [Compound 7s, 4-[3-Hydroxy-4-methoxyphenyl]-1-(3,4,5-trimethoxyphenyl)-3-vinylazetidin-2-one]	–	–	–	–	–	8.7 fold and 8.70 fold	–	–	32.1	29.9	36.4	< 10	429	> 100000	11.1	< 10	10.5	< 10	< 10	271	fold reduction in vmax of tubulin polymerization (purified bovine tubulin; 1 μM): 2.61 fold; fold reduction in vmax of tubulin polymerization (purified bovine tubulin; 5 μM): 7.31 fold; IC50 (purified bovine tubulin; calculated from 1, 5 and 10 μM, read-out: IC50 for the inhibition of tubulin polymerization): 1370 nM
C=CC1C(=O)N(c2cc(OC)c(OC)c(OC)c2)C1c1ccc(OC)c(N)c1 (centres unmarked) [Compound 7t, 4-(3-Amino-4-methoxyphenyl)-1-(3,4,5-trimethoxyphenyl)-3-vinylazetidin-2-one]	30 ± 2	17.5	36.8	< 10	0.92	9.15 fold	17.9	> 100000	–	–	–	–	–	–	–	–	–	–	–	–	GI50 (UO-31; UO-31): 64 nM; GI50 (SR; SR): 43.9 nM; GI50 (MDA-MB-435; MDA-MB-435): < 10 nM; GI50 (SK-OV-3; SK-OV-3): 45.7 nM; GI50 (LOX IMVI; LOX IMVI): < 10 nM; GI50 (CCRF-CEM; CCRF-CEM): 32.6 nM; GI50 (SK-MEL-28; SK-MEL-28): 18.1 nM; GI50 (SF295): 21.3 nM
C=CC1C(=O)N(c2cc(OC)c(OC)c(OC)c2)C1c1ccc(OC)c(OP(=O)(O)O)c1 (centres unmarked) [Compound 17b, 2-Methoxy-5-(1-(3,4,5-trimethoxyphenyl)-4-oxo-3-vinylazetidin-2-yl)phenyl dihydrogen phosphate]	–	–	–	–	–	–	–	–	1910	> 100000	190	39.4	2780	> 100000	254	21	97.7	42.2	97.7	29.1	GI50 (SR; [15]): 57.2 nM; GI50 (CCRF-CEM; [16]): 60.4 nM
CCC1C(=O)N(c2cc(OC)c(OC)c(OC)c2)C1c1ccc(OC)c(OP(=O)(O)O)c1 (centres unmarked) [Compound 17c, 5-(3-Ethyl-1-(3,4,5-trimethoxyphenyl)-4-oxoazetidin-2-yl)-2-methoxyphenyl dihydrogen phosphate]	44 ± 7	–	–	–	–	–	–	–	204	> 100000	40.9	25.1	356	> 100000	42.6	12.8	34.1	24.1	7460	24.3	GI50 (SR; [15]): 33.5 nM; GI50 (CCRF-CEM; [16]): 32.5 nM
